# Source: patent US20080027098A1, “Derivatives of alpha-phenylthiocarboxylic and alpha-phenyloxy-carboxylic acids useful for the treatment of diseases responding to PPARalpha activation” (SIGMA-TAU INDUSTRIE FARMACEUTICHE RIUNITE S.p.A., priority 2002, published 2008)
# Marks after values point to notes of the source that are not given here.
# How the values were obtained:
# [1] = tested on: db/db mice; assay: Increase in HDL-cholesterol levels in db/db mice; type: in vivo
# Description: Increase in HDL-Cholesterol Levels in db/db Mice
# In this experiment db/db mice were used in which PPARα expression is above normal (Memon et al., Endocrinology 2000, 4021-4031) and HDL-cholesterol levels are substantially elevated (Silver et al., J Biol Chem 1999, 274: 4140-4146).
# The C57BL[KsJ db/db mice were acclimatised for one week in standard conditions (22±2° C.; 55±15% humidity; 15-20 air changes/hour; 12 hours light/darkness cycle with light from 7.00 a.m. to 7 p.m.) with a standard 4 RF21 diet (Mucedola). Blood samples were taken in post-absorption conditions (fasting from 8.30 a.m. to 4.30 p.m.) from the caudal vein with the aid of a Jelco 22G catheter (Johnson and Johnson). Glucose, insulin, triglyceride, cholesterol, free fatty acid and urea levels were checked in plasma for a homogeneous distribution of the mice in the treatment groups.
# At the beginning of treatment the animals' body weight was checked and arrangements were made to monitor their water and feed consumption. […]
# The compound tested, obtained as described in example 4 (ST 1929) was administered at the dose of 24 mg/kg in 10 ml/kg of vehicle (1% CMC containing Tween 80 0.5% in deionized H2O).
# The other compounds tested were also administered at a dose equivalent to that in example 4.
# Ciprofibrate, a known PPARα agonist (Varanasi et al., J Biol Chem 1996, 271: 2147-2155; Latruffe et al. Cell Biochem Biophys 2000, 32 Spring: 213-220) was administered at the dose of 20 mg/kg (Dwivedi et al., Toxicol Pathol 1989, 17: 16-26; Qi et al., Proc Natl Acad Sci USA 1999, 96: 1585-1590).
# The animals were sacrificed (by decapitation) in conditions of post-absorption (fasting from 9.30 a.m. to 4.30 p.m.) 7 hours after the last treatment. The levels of a number of important lipid and carbohydrate metabolism parameters were determined in the serum.
# The HDL-cholesterol levels were measured by treating the serum with phosphotungstic-acid-based precipitating reagent (ABX Diagnostics) which removes the chylomicrons, very low density and low density lipoproteins and determining the HDL-cholesterol levels in the supernatant with the aid of the Cholesterol Kit (ABX Diagnostics) and the Cobas Mira S Autoanalyzer (Roche).
# In a further experiment, where the above reported ST2195 was used as reference compound, db/db mice were treated orally twice daily (8.30 a.m. and 6.30 p.m.) for 14 days with the test items (equimolar to 25 mg/kg of ST2 195) giving the following results reported in Table 3: […]
# [2] = tested on: hAPO A I transgenic mice; assay: Plasma lipid parameters in hAPO A I transgenic mice; type: in vivo; conditions: 16 days; for P-triglycerides / P-hdl-cholesterol: post-absorptive state; for P-triglycerides: control 75 ± 6; for P-hdl-cholesterol: control 163 ± 6
# Description: ST2518, fenofibrate and rosiglitazone were administered by gavage for 16 days, and plasma (p) parameters were evaluated in post-absorptive state.
# [3] = tested on: high-cholesterol diet-fed CD-1 mice; assay: Hypolipidemic activity in high-cholesterol diet-fed CD-1 mice; type: in vivo; conditions: 16 days; for P-triglycerides / P-Cholesterol: post-absorptive state; for P-triglycerides: control 49 ± 3; for P-Cholesterol: control 350 ± 28
# Description: High-Cholesterol Diet-Fed CD-1 Mice
# ST2518, fenofibrate, rosiglitazone and pioglitazone (PPARγ agonists) were administered by gavage, for 16 days, to CD-1 mice fed with high-cholesterol diet, and plasma parameters were evaluated in post-absorptive state.
# [4] = tested on: standard diet-fed c57bl/6j mice; assay: Hypolipidemic activity in standard diet-fed c57bl/6j mice; type: in vivo; conditions: for Triglycerides (plasma): 15 days, post-absorptive state, control 53.8 ± 4.2
# Description: Standard Diet-Fed c57bl/6j Mice
# ST2518 was evaluated in comparison with fenofibrate also in c57b1/6j mice fed with standard diet (Table 5).
# [5] = target: T1, Gal4DBD/PPARαLBD (Homo sapiens, UniProt Q07869); assay: Transient transfection of COS-7 cells, Gal4DBD/PPARαLBD transactivation, CAT reporter (II method); type: cell-based; conditions: read-out: percentage activation of the CAT reporter gene compared to reference compound WY-14.643 2 μM taken as 100%
# T1 construct: expressed in transfected cells; host or cells: COS-7 (monkey kidney fibroblasts)
# T1 sequence (Q07869 239-466 limits assumed): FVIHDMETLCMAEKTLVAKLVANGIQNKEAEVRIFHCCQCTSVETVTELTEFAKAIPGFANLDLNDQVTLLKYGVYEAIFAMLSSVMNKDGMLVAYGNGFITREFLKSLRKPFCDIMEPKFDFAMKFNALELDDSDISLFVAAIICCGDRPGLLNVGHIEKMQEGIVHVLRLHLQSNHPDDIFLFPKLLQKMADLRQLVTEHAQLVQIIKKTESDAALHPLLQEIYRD
# Excerpt: Transient Transfection of Eukaryotic Cells to Evaluate the Agonist Activity of PPARα Ligands (II Method)
# An alternative transactivation system, which differs mainly in the way the receptor is positioned onto the DNA, and depending on how the event of ligand binding is translated into transcriptional activation, was used.
# In this model eukaryotic cells were transiently transfected with an expression vector encoding a fusion protein between the DNA binding domain (DBD) of the yeast Gal4 transcription factor and the ligand binding domain (LBD) of the PPARα (Gal4DBD/PPARαLBD). The reporter vector containing 5 copies of the high affinity binding site for Gal4 (named UAS, upstream activating sequence) upstream of a strong viral promoter linked to the reporter gene chloramphenicol acetyltransferase (CAT), was co-transfected. This model offered some advantages, the most important of which was the absence of interference by endogenous receptors.
# Besides expression and reporter vectors, cells were transfected with a control vector pCH110 that encodes the β-galactosidase enzyme to correct for differences in transfection efficiency.
# A monkey kidney fibroblast cell line (COS-7) was used. Cells were co-transfected with the plasmid carrying the gene-reporter, the expression plasmid encoding the fusion protein Gal4DBD/PPARαLBD, and the control vector pCH110. Cells were then treated with increasing concentrations of test compounds and the CAT activity was measured. Untreated cells were used as control.
# Monkey kidney fibroblasts (COS-7) were routinely grown in DMEM (Dulbecco's modified Eagle's medium) supplemented with 3.7 g/l sodium bicarbonate, 4 mM L-glutamine, 4.5 g/l glucose, 1 mM sodium piruvate and 10% v/v foetal bovine serum, in the presence of streptomycin 100 μg/ml and penicillin 100 U/ml.
# COS-7 cells were transiently transfected by using the multi-component lipid-based FuGENE6 Transfection Reagent that complexes with and transports DNA into the cells during transfection. Cells were seeded at 1.2×10^5 cells/well, in 12-well plates, and cultured overnight at 37° C. in a 5% v/v carbon dioxide atmosphere. Two hours before transfection the culture medium was replaced by fresh serum-free medium and then transfection was performed with FuGENE6 Transfection Reagent according to the instructions of the manufacturer. Briefly, the transfection mixture containing (for each well) 0.8 μg of the expression vector, 1.6 μg of the reporter vector, 0.8 μg of the control vector and 9 μl of FuGENE6 Transfection Reagent was added directly to the cells in the presence of serum-free medium. After 5 hours the transfection medium was replaced by 1 ml of the complete culture medium with or without the test molecules at 3 different concentrations (2, 20 and 100 μM). 2 μM Wy-14,643, a known PPARα ligand, was used as positive control.
# After 48 h, the cells were washed twice with 1 ml phosphate buffer (PBS) and then harvested by scraping them in TEN buffer (Tris [hydroxymethyl] aminomethane 10 mM pH 8, ethylenediamine tetraacetic acid 1 mM, pH 8, sodium chloride 0.1 M). Following centrifugation at room temperature, for 3 min at 1000 revs per minute (rpm), cells were resuspended with 60 μl of Lysis buffer (0.25M Tris-HCl, pH 8) and lysed by three rapid freeze/thaw cycles (three 5-minute cycles). Cell debris was then removed by centrifugating at 4° C., for 15 min at 15.000 revs per minute (rpm),. Glycerol (final 10% v/v) and β-mercaptoethanol (final 5 mM) were then added (final volume 75 μl) and the cell extracts were stored at −80° C. until assayed.
# The CAT activity assay was performed as follows: 20 μl of cell lysate (pre-warmed at 65° C. for 10 min to deactivate internal deacetylase enzymatic activity) were added to 10 μl of 3.5 mg/ml n-butirryl-CoA, 5 μl ([…]) of [14C]-chloramphenicol and 65 μl of distilled H20 and incubated 2 h at 37° C. Reaction was blocked by adding 200 μl of the solution xylene/2,6,10,14 tetramethyl-pentadecane (in a 1:2 v/v mixture). […]
smiles,measurement,setting,value
"COC(=O)C(C)(C)Sc1ccc(OC(=O)NCc2ccc(OC)cc2)cc1 [ST2031, methyl 2-[4-[[(4-methoxybenzyl)carbamoyl]oxy]phenylthio]isobutyrate]",Increase in HDL/cholesterol levels (%),"[1]; oral twice daily, dose equivalent to 24 mg of ST1929, 10 days",+51 ▴ %
same,melting point,,64 to 65 °C
"CC(C)OC(=O)C(C)(C)Oc1ccc(C(=O)c2ccc(Cl)cc2)cc1 [Fenofibrate, reference compound]",Increase in HDL/cholesterol levels (%),"[1]; 24.7 mg/kg, 25 days",+18%
same,Increase in HDL/cholesterol levels (%),"[1]; second experiment, 24.7 mg/kg, 16 days",+56[…] %
same,P-triglycerides,[2]; 26 mg/kg/bid by gavage,78 ± 6 mg/dL
same,P-triglycerides,[3]; 26 mg/Kg/bid by gavage,43 ± 3 mg/dL
same,P-Cholesterol,[3]; 26 mg/Kg/bid by gavage,308 ± 18 mg/dL
same,Triglycerides (plasma),[4]; 25 mg/kg/bid by gavage,38.0 ± 2.9 Δ mg/dl
same,Triglycerides (plasma),[4]; 75 mg/kg/bid by gavage,34.4 ± 2.7 Δ mg/dl
same,Triglycerides (plasma),[4]; 125 mg/kg/bid by gavage,36.0 ± 1.2 Δ mg/dl
"CN(CCOc1ccc(CC2SC(=O)NC2=O)cc1)c1ccccn1 (stereo not shown) [rosiglitazone, reference compound]",P-triglycerides,[2]; 5 mg/kg/bid by gavage,74 ± 10 mg/dL
same,P-hdl-cholesterol,[2]; 5 mg/kg/bid by gavage,144 ± 18 mg/dL
same,P-triglycerides,[3]; 5 mg/Kg/bid by gavage,41 ± 3 mg/dL
same,P-Cholesterol,[3]; 5 mg/Kg/bid by gavage,354 ± 23 mg/dL
"COC(=O)C(C)(C)Sc1cccc(OCc2ccc(-c3ccc([N+](=O)[O-])cc3)o2)c1 [ST2501, methyl 2-[3-[5-(4-nitrophenyl)furfuryl-oxy]phenylthio]isobutyrate]",activation at 2 µM,[5]; 2 μM,85.7%
same,activation at 20 µM,[5]; 20 μM,288%
same,activation at 100 µM,[5]; 100 μM,231%
same,melting point,,81 to 82 °C
CCc1ccc(CCOc2ccc(CC3SC(=O)NC3=O)cc2)nc1 (stereo not shown) [pioglitazone],P-triglycerides,[3]; 20 mg/Kg/bid by gavage,43 ± 4 mg/dL
same,P-Cholesterol,[3]; 20 mg/Kg/bid by gavage,345 ± 27 mg/dL
"COc1ccc(OC(=O)N(CC(=O)O)Cc2ccc(OCCc3nc(-c4ccccc4)oc3C)cc2)cc1 [Muraglitazar, reference compound]",Triglycerides (plasma),[4]; 5 mg/kg/bid by gavage,45.6 ± 3.4 mg/dL
"CC(C)(Sc1cccc(OCCc2ccc(Cl)cc2)c1)C(=O)O [ST2518, 2-[3-[2-(4-chlorophenyl)ethoxy]phenylthio]-2-methylpropanoic acid]",Increase in HDL-cholesterol levels (%),"[1]; further experiment, oral twice daily 14 days, dose equimolar to 25 mg/kg of ST2195, 8 hours after last treatment",+46Δ %
same,P-triglycerides,[2]; 25 mg/kg/bid by gavage,36 ± 3 δ mg/dl
same,P-hdl-cholesterol,[2]; 25 mg/kg/bid by gavage,252 ± 18 δ mg/dl
same,effect on HDL-cholesterol (in words),[2]; gavage,increased HDL-cholesterol more than fenofibrate
same,effect on triglyceride levels (in words),[2]; gavage,effective in reducing triglyceride levels
same,P-Cholesterol,[3]; 25 mg/Kg/bid by gavage,200 ± 29 Δ mg/dL
same,effect on plasma-cholesterol and triglyceride levels (in words),"[3]; gavage, high-cholesterol diet",significantly reduced plasma-cholesterol and triglyceride levels
same,Triglycerides (plasma),[4]; 5 mg/kg/bid by gavage,29.4 ± 3.0 Δ mg/dl
same,Triglycerides (plasma),[4]; 15 mg/kg/bid by gavage,29.5 ± 3.4 Δ mg/dl
same,Triglycerides (plasma),[4]; 25 mg/kg/bid by gavage,24.6 ± 2.0 Δ mg/dl
same,effect on plasma triglyceride levels (in words),"[4]; treatment for 15 days, standard diet",significantly reduced plasma triglyceride levels to a higher extent than fenofibrate and muraglitazar
same,melting point,,105 to 106 °C
"COC(=O)C(C)(C)Sc1ccc(O)cc1 [ST1923, methyl 2-(4-hydroxyphenylthio)isobutyrate]",melting point,,110 to 112 °C
